Measurements from PubChem BioAssay AID1963978 (Molecular Pharmacology Branch, DTP, NCI, 2024).

System: 616215-338-R-J1-PDC spheroids with HUVEC/MSC, viability
Assay: Anticancer human tumor 616215-338-R-J1-PDC patient-derived colon adenocarcinoma cell line growth inhibition [PI3K]
Conditions: for IC50: curve of first compound; for viability, T/C: stronger effect = lower value; active = viability on the fitted dose curve at most 10% of control; inactive = the rest
In short: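 High-throughput combination screen: PI3K inhibitors crossed with targeted small molecules on complex spheroids of tumor cells, HUVEC and MSCs at 37 degrees C, 5% CO2. Top concentration was at or near clinical Cmax (otherwise 10 microM), with half-log decrements.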

[1] = second compound 0.0316 µM, first compound 0.0316 µM
[2] = second compound 0.0316 µM, first compound 0.1 µM
[3] = second compound 0.0316 µM, first compound 0.316 µM
[4] = second compound 0.0316 µM, first compound 1 µM
[5] = second compound 0.0316 µM, first compound 3.16 µM
[6] = second compound 0.0316 µM, first compound 10 µM
[7] = second compound 0.1 µM, first compound 0.0316 µM
[8] = second compound 0.1 µM, first compound 0.1 µM
[9] = second compound 0.1 µM, first compound 0.316 µM
[10] = second compound 0.1 µM, first compound 1 µM
[11] = second compound 0.1 µM, first compound 3.16 µM
[12] = second compound 0.1 µM, first compound 10 µM
[13] = second compound 0.316 µM, first compound 0.0316 µM
[14] = second compound 0.316 µM, first compound 0.1 µM
[15] = second compound 0.316 µM, first compound 0.316 µM
[16] = second compound 0.316 µM, first compound 1 µM
[17] = second compound 0.316 µM, first compound 3.16 µM
[18] = second compound 0.316 µM, first compound 10 µM
[19] = second compound 1 µM, first compound 0.0316 µM
[20] = second compound 1 µM, first compound 0.1 µM
[21] = second compound 1 µM, first compound 0.316 µM
[22] = second compound 1 µM, first compound 1 µM
[23] = second compound 1 µM, first compound 3.16 µM
[24] = second compound 1 µM, first compound 10 µM
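Also: spheroids exposed to agents for seven days before the viability read.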

CCCS(=O)(=O)Nc1ccc(F)c(C(=O)c2c[nH]c3ncc(-c4ccc(Cl)cc4)cc23)c1F + CC(Nc1ncnc2nc[nH]c12)c1cc2cccc(Cl)c2c(=O)n1-c1ccccc1
4.29 µM: IC50 (second compound 3.16 µM)
active: viability, T/C [6] 1.56% | viability, T/C [12] 1.25% | viability, T/C [18] 1.67% | viability, T/C [24] 2.71% | viability, T/C (second compound 3.16 µM, first compound 10 µM) 1.53% | viability, T/C (second compound 10 µM, first compound 10 µM) 3%
4.58 µM: IC50 (second compound 0.0316 µM)
4.39 µM: IC50 (second compound 0.316 µM)
4.67 µM: IC50 (second compound 1 µM)
4.06 µM: IC50 (second compound 0.1 µM)
inactive: viability, T/C [1] 102% | viability, T/C [2] 93.2% | viability, T/C [3] 106% | viability, T/C [4] 93.6% | viability, T/C [5] 73.2% | viability, T/C [7] 110% | viability, T/C [8] 102% | viability, T/C [9] 106% | viability, T/C [10] 96.4% | viability, T/C [11] 63.4% | viability, T/C [13] 105% | viability, T/C [14] 113% | viability, T/C [15] 97.7% | viability, T/C [16] 101% | viability, T/C [17] 68.9% | viability, T/C [19] 107% | viability, T/C [20] 105% | viability, T/C [21] 93.8% | viability, T/C [22] 101% | viability, T/C [23] 74.3% | viability, T/C (second compound 3.16 µM, first compound 0.0316 µM) 100% | viability, T/C (second compound 3.16 µM, first compound 0.1 µM) 115% | viability, T/C (second compound 3.16 µM, first compound 0.316 µM) 102% | viability, T/C (second compound 3.16 µM, first compound 1 µM) 107% | viability, T/C (second compound 3.16 µM, first compound 3.16 µM) 67.4% | viability, T/C (second compound 10 µM, first compound 0.0316 µM) 115% | viability, T/C (second compound 10 µM, first compound 0.1 µM) 105% | viability, T/C (second compound 10 µM, first compound 0.316 µM) 113% | viability, T/C (second compound 10 µM, first compound 1 µM) 104% | viability, T/C (second compound 10 µM, first compound 3.16 µM) 74.7%
4.69 µM: IC50 (second compound 10 µM)

CC(C)NCC(C(=O)N1CCN(c2ncnc3c2C(C)CC3O)CC1)c1ccc(Cl)cc1 (centres undefined) + COc1c(OCCCN2CCOCC2)ccc2c3n(c(=NC(=O)c4cnc(N)nc4)nc12)CCN3
2.56 µM: IC50 (second compound 0.0316 µM)
4 µM: IC50 (second compound 0.01 µM)
inactive: viability, T/C (second compound 0.00316 µM, first compound 0.0316 µM) 87.4% | viability, T/C (second compound 0.00316 µM, first compound 0.1 µM) 92.8% | viability, T/C (second compound 0.00316 µM, first compound 0.316 µM) 92.9% | viability, T/C (second compound 0.00316 µM, first compound 1 µM) 97% | viability, T/C (second compound 0.00316 µM, first compound 3.16 µM) 64.3% | viability, T/C (second compound 0.00316 µM, first compound 10 µM) 22.1% | viability, T/C (second compound 0.01 µM, first compound 0.0316 µM) 93.1% | viability, T/C (second compound 0.01 µM, first compound 0.1 µM) 99.6% | viability, T/C (second compound 0.01 µM, first compound 0.316 µM) 100% | viability, T/C (second compound 0.01 µM, first compound 1 µM) 103% | viability, T/C (second compound 0.01 µM, first compound 3.16 µM) 57.2% | viability, T/C (second compound 0.01 µM, first compound 10 µM) 21.4% | viability, T/C [1] 96.8% | viability, T/C [2] 102% | viability, T/C [3] 93.6% | viability, T/C [4] 94.4% | viability, T/C [5] 40.1% | viability, T/C [6] 23.7% | viability, T/C [7] 98.8% | viability, T/C [8] 84.4% | viability, T/C [9] 80.3% | viability, T/C [10] 55.7% | viability, T/C [11] 39.6% | viability, T/C [12] 18.5% | viability, T/C [13] 38.3% | viability, T/C [14] 37.1% | viability, T/C [15] 33.3% | viability, T/C [16] 30.3% | viability, T/C [17] 28.2% | viability, T/C [18] 17% | viability, T/C [19] 24.8% | viability, T/C [20] 21.8% | viability, T/C [21] 22.1% | viability, T/C [22] 20.9% | viability, T/C [23] 20.7% | viability, T/C [24] 14.1%
1.64 µM: IC50 (second compound 0.1 µM)
4.67 µM: IC50 (second compound 0.00316 µM)
< 0.0316 µM: IC50 (second compound 0.316 µM) | IC50 (second compound 1 µM)
